# In the supplement of paper PMC10307832:
# Assays:
# Assay in all cases: relative viability (nuclei count vs DMSO), 5 days (fraction); higher = more cells survive
# [1] = system: COR-L 105
# How it was run: (§1)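 Relative viability divides the nuclei count in treated wells by that in vehicle wells. Lung cancer cell lines were seeded in 1536-well plates, dosed by pin tool the next day, and fixed and stained after 5 days in one step with final 0.05% Triton X-100, 1% formaldehyde and 1 ug/ml Hoechst. Dosing was a single drug or a fixed anchor-drug dose plus five library-drug doses (not always all listed) in √10 steps, and values are medians of duplicate plates imaged at 4×.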
# [2] = system: A-427
# How it was run: as §1
# [3] = system: NCI-H441
# How it was run: as §1
# [4] = system: HCC-366
# How it was run: as §1
# [5] = system: NCI-H1792
# How it was run: as §1
# [6] = system: NCI-H23
# How it was run: as §1
# [7] = system: EMC-BAC-2
# How it was run: as §1
# [8] = system: ChaGo-K-1
# How it was run: as §1
# [9] = system: NCI-H1975
# How it was run: as §1
# [10] = system: H3255
# How it was run: as §1
# [11] = system: NCI-H1666
# How it was run: as §1
# [12] = system: NCI-H596
# How it was run: as §1
# [13] = system: NCI-H1755
# How it was run: as §1
# [14] = system: NCI-H520
# How it was run: as §1
# [15] = system: NCI-H2170
# How it was run: as §1
# [16] = system: NCI-H1563
# How it was run: as §1
# [17] = system: SK-MES-1
# How it was run: as §1
# [18] = system: EKVX
# How it was run: as §1
# [19] = system: PC-3 [JPC-3]
# How it was run: as §1
# [20] = system: LOU-NH91
# How it was run: as §1
# [21] = system: LK-2
# How it was run: as §1
# [22] = system: NCI-H1734
# How it was run: as §1
# [23] = system: SW 900
# How it was run: as §1
compound,measurement,setting,value
CC1(C)CCC(c2ccc(Cl)cc2)=C(CN2CCN(c3ccc(C(=O)NS(=O)(=O)c4ccc(N[C@H](CCN5CCOCC5)CSc5ccccc5)c(S(=O)(=O)C(F)(F)F)c4)cc3)CC2)C1 [Navitoclax] + N=C(N)NC(=N)NCCc1ccccc1 [Phenformin] (partner 250 µM),relative viability,[1]; first compound 0.005 µM,0.464
same,relative viability,[1]; first compound 0.01581 µM,0.746
same,relative viability,[1]; first compound 0.05 µM,0.431
same,relative viability,[1]; first compound 0.1581 µM,0.503
same,relative viability,[1]; first compound 0.5 µM,0.405
same,relative viability,[2]; first compound 0.005 µM,0.342
same,relative viability,[2]; first compound 0.01581 µM,0.359
same,relative viability,[2]; first compound 0.05 µM,0.179
same,relative viability,[2]; first compound 0.1581 µM,0.287
same,relative viability,[2]; first compound 0.5 µM,0.273
same,relative viability,[3]; first compound 0.005 µM,0.919
same,relative viability,[3]; first compound 0.01581 µM,1.14
same,relative viability,[3]; first compound 0.05 µM,0.846
same,relative viability,[3]; first compound 0.1581 µM,0.851
same,relative viability,[3]; first compound 0.5 µM,0.818
same,relative viability,[4]; first compound 0.005 µM,0.708
same,relative viability,[4]; first compound 0.01581 µM,0.616
same,relative viability,[4]; first compound 0.1581 µM,0.619
same,relative viability,[4]; first compound 0.5 µM,0.588
same,relative viability,[5]; first compound 0.005 µM,0.258
same,relative viability,[5]; first compound 0.01581 µM,0.179
same,relative viability,[5]; first compound 0.5 µM,0.112
same,relative viability,[6]; first compound 0.005 µM,0.759
same,relative viability,[6]; first compound 0.01581 µM,0.818
same,relative viability,[6]; first compound 0.05 µM,0.662
same,relative viability,[6]; first compound 0.1581 µM,0.783
same,relative viability,[6]; first compound 0.5 µM,0.799
same,relative viability,[7]; first compound 0.005 µM,0.496
same,relative viability,[7]; first compound 0.01581 µM,0.604
same,relative viability,[7]; first compound 0.05 µM,0.523
same,relative viability,[7]; first compound 0.1581 µM,0.498
same,relative viability,[7]; first compound 0.5 µM,0.489
same,relative viability,[8]; first compound 0.005 µM,0.459
same,relative viability,[8]; first compound 0.01581 µM,0.502
same,relative viability,[8]; first compound 0.05 µM,0.397
same,relative viability,[8]; first compound 0.1581 µM,0.48
same,relative viability,[8]; first compound 0.5 µM,0.501
same,relative viability,[9]; first compound 0.005 µM,0.427
same,relative viability,[9]; first compound 0.01581 µM,0.428
same,relative viability,[9]; first compound 0.05 µM,0.454
same,relative viability,[9]; first compound 0.1581 µM,0.414
same,relative viability,[9]; first compound 0.5 µM,0.42
same,relative viability,[10]; first compound 0.005 µM,0.338
same,relative viability,[10]; first compound 0.01581 µM,0.399
same,relative viability,[10]; first compound 0.05 µM,0.376
same,relative viability,[10]; first compound 0.1581 µM,0.39
same,relative viability,[10]; first compound 0.5 µM,0.339
same,relative viability,[11]; first compound 0.005 µM,0.604
same,relative viability,[11]; first compound 0.01581 µM,0.573
same,relative viability,[11]; first compound 0.05 µM,0.511
same,relative viability,[11]; first compound 0.1581 µM,0.534
same,relative viability,[11]; first compound 0.5 µM,0.559
same,relative viability,[12]; first compound 0.005 µM,0.742
same,relative viability,[12]; first compound 0.01581 µM,0.71
same,relative viability,[12]; first compound 0.1581 µM,0.67
same,relative viability,[12]; first compound 0.5 µM,0.815
same,relative viability,[13]; first compound 0.005 µM,0.639
same,relative viability,[13]; first compound 0.01581 µM,0.659
same,relative viability,[13]; first compound 0.05 µM,0.575
same,relative viability,[13]; first compound 0.1581 µM,0.521
same,relative viability,[13]; first compound 0.5 µM,0.43
same,relative viability,[14]; first compound 0.005 µM,0.576
same,relative viability,[14]; first compound 0.01581 µM,0.758
same,relative viability,[14]; first compound 0.05 µM,0.571
same,relative viability,[14]; first compound 0.1581 µM,0.507
same,relative viability,[14]; first compound 0.5 µM,0.616
same,relative viability,[15]; first compound 0.005 µM,0.442
same,relative viability,[15]; first compound 0.01581 µM,0.47
same,relative viability,[15]; first compound 0.05 µM,0.391
same,relative viability,[15]; first compound 0.1581 µM,0.42
same,relative viability,[15]; first compound 0.5 µM,0.347
same,relative viability,[16]; first compound 0.005 µM,0.685
same,relative viability,[16]; first compound 0.01581 µM,0.723
same,relative viability,[16]; first compound 0.05 µM,0.611
same,relative viability,[16]; first compound 0.1581 µM,0.682
same,relative viability,[16]; first compound 0.5 µM,0.665
same,relative viability,[17]; first compound 0.005 µM,0.581
same,relative viability,[17]; first compound 0.01581 µM,0.746
same,relative viability,[17]; first compound 0.05 µM,0.684
same,relative viability,[17]; first compound 0.1581 µM,0.681
same,relative viability,[17]; first compound 0.5 µM,0.722
same,relative viability,[18]; first compound 0.005 µM,0.262
same,relative viability,[18]; first compound 0.01581 µM,0.238
same,relative viability,[18]; first compound 0.05 µM,0.226
same,relative viability,[18]; first compound 0.1581 µM,0.239
same,relative viability,[18]; first compound 0.5 µM,0.235
same,relative viability,[19]; first compound 0.005 µM,0.466
same,relative viability,[19]; first compound 0.01581 µM,0.48
same,relative viability,[19]; first compound 0.05 µM,0.516
same,relative viability,[19]; first compound 0.1581 µM,0.453
same,relative viability,[19]; first compound 0.5 µM,0.41
same,relative viability,[20]; first compound 0.005 µM,0.8
same,relative viability,[20]; first compound 0.01581 µM,0.693
same,relative viability,[20]; first compound 0.05 µM,0.636
same,relative viability,[20]; first compound 0.1581 µM,0.652
same,relative viability,[20]; first compound 0.5 µM,0.427
same,relative viability,[21]; first compound 0.005 µM,0.417
same,relative viability,[21]; first compound 0.01581 µM,0.551
same,relative viability,[21]; first compound 0.05 µM,0.379
same,relative viability,[21]; first compound 0.1581 µM,0.353
same,relative viability,[21]; first compound 0.5 µM,0.395
same,relative viability,[22]; first compound 0.005 µM,0.367
same,relative viability,[22]; first compound 0.01581 µM,0.461
same,relative viability,[22]; first compound 0.1581 µM,0.371
same,relative viability,[22]; first compound 0.5 µM,0.341
same,relative viability,[23]; first compound 0.005 µM,0.484
same,relative viability,[23]; first compound 0.01581 µM,0.638
same,relative viability,[23]; first compound 0.05 µM,0.586
same,relative viability,[23]; first compound 0.1581 µM,0.556
same,relative viability,[23]; first compound 0.5 µM,0.41
